Consider 5 molecules from US20260007639A1, “COMPOUNDS FOR THE TREATMENT OF NEUROMUSCULAR DISORDERS” (NMD PHARMA A/S, priority 2017, published 2026).

One assay deals with rat soleus muscles. Nature of the assay: Recovery of force in isolated rat soleus nerve-muscle preparations after 115 nM tubocurarine, 50 μM compound (Table 8). Particulars: 40 mins exposure. Put shortly: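 Soleus nerve-muscle preparations from 4-5 wk old rats, force evoked by motor-nerve stimulation. After 90 min in 115 nM tubocurarine, 50 μM compound added with tubocurarine still present; force recovery after 40 min expressed as percentage of pre-tubocurarine force.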

In the next assay the test system is female Lewis rats. Nature of the assay: In situ isometric hindlimb force in anaesthetised rats with neuromuscular transmission partially inhibited by Cisatracurium. The class given is in vivo, rat. Particulars: 80 Hz stimulation, Cisatracurium infusion. As for the experimental part: Isometric hindlimb force was measured in 12-week old female Lewis rats in the presence and absence of compound.
Rats were placed under anesthesia with isoflurane (2-4%), intubated and subsequently connected to a micro ventilator (Microvent 1, Hallowell EMC, US). Two stimulation electrodes were inserted through the skin to stimulate the sciatic nerve. A small incision was made proximal to the ankle, to expose the Achilles tendon, which was tied by cotton string, and connected to a force transducer (Fort250, World Precision Instruments) with adjustable position (Vernier control). The Achilles tendon was then cut distal to the attached cotton string. The rat was placed on a heated pad, and to prevent movement artefacts from contraction of the ankle dorsiflexors, the foot was fixated by tape on a footplate.
Muscle contractile properties were assessed by applying an electrical current (under supramaximal voltage conditions) to the nerve and recording the force generated by the muscle. The muscle was stretched until maximal force was obtained, when assessed by 2 Hz stimulation. Isometric force was measured every 30 seconds at 12 Hz (Twitch), 10 pulses, and at every 5 minutes at 80 Hz (Tetanic) for 1 second (80 pulses). This stimulation pattern was employed throughout the experiment, expect in few cases where 80 Hz stimulation was replaced by 12 Hz (10 pulses). […] When the level of neuromuscular inhibition was stable, the test article was injected i.v. at the chosen concentration. The effect of test article was assessed on its ability to increase force generated from the stimulation pattern applied. The effect was assessed in the ability to increase force per se (tetanic, 80 Hz, stimulation), and the ratio between individual twitch peaks (12 Hz stimulation). The effect was monitored for at least 1 hour after injection of test article. In addition, the time from injection of test article to maximal effect on force (both twitch and tetanic) was noted and the time for the effect to disappear (return to baseline), if possible. When appropriate the infusion of neuromuscular blocking agent was ceased, with the stimulation pattern continued, and the return of force to control levels was monitored. Animals were sacrificed by cervical dislocation while still fully sedated.

Take `O=C(O)COc1ccc(Br)cc1-c1ccon1` [Compound A-64, 2-[4-bromo-2-(1,2-oxazol-3-yl)phenoxy]acetic acid]: the “Point increase (%) of initial force that was restored” value (from here on “Point increase (%)”) in the assay on rat soleus muscles was 25%. In the assay on female Lewis rats (44.8 mg/kg i.v.), the “average increase in tetanic force” value is listed as 57.7%.

As for `O=C(O)[C@H](CF)Oc1ccc(Br)cc1-c1ccon1` [Compound A-31, (2R)-2-[4-bromo-2-(1,2-oxazol-3-yl)phenoxy]-3-fluoropropanoic acid], the “Point increase (%)” value in the assay on rat soleus muscles was 36%. In addition, in the assay on female Lewis rats (40.0 mg/kg i.v.), the “average increase in tetanic force” value was determined as 34.1%.

For `C[C@H](Oc1ccc(Cl)cc1-c1ccno1)C(=O)O` [Compound A-26, (2S)-2-[4-chloro-2-(1,2-oxazol-5-yl)phenoxy]propanoic acid], the “Point increase (%)” value in the assay with rat soleus muscles amounted to 20%. Further, the “average increase in tetanic force” value with female Lewis rats (40.0 mg/kg i.v.) was found to be 33.4%.

Take `C[C@H](Oc1cc(F)c(Br)cc1-c1ccon1)C(=O)O` [Compound A-44, (2S)-2-[4-bromo-5-fluoro-2-(1,2-oxazol-3-yl)phenoxy]propanoic acid]: the “Point increase (%)” value in the assay with rat soleus muscles is on record as 27%. For the same molecule, the “average increase in tetanic force” value with female Lewis rats (24.6 mg/kg i.v.) was 46.2%.

With `C[C@H](Oc1ccc(Br)cc1-c1csnn1)C(=O)O` [Compound A-59, (2S)-2-[4-bromo-2-(1,2,3-thiadiazol-4-yl)phenoxy]propanoic acid], the “Point increase (%)” value in the assay with rat soleus muscles was determined as 20%. For the same molecule, the “average increase in tetanic force” value in the assay on female Lewis rats (49.2 mg/kg i.v.) is 42.8%.
